Literature values, collected in patent US20210196621A1, “ALCOHOL-FREE BOTANICAL ORAL CARE PRODUCTS” (The Trustees of Columbia University in the City of New York, priority 2018, published 2021).

Key:
[1] = oral rinses, WO 2014/092999

Compound	Synergism with botanical blend absent pomegranate extract (absent pomegranate extract)	Synergism with botanical blends containing pomegranate extract (blends containing pomegranate extract)	Synergistic activity with thymol and vanilla extract [1]
[H]/N=C(\N/C(=N/[H])NCCCCCCNC(=N)NC(=N)Nc1ccc(Cl)cc1)Nc1ccc(Cl)cc1 [chlorhexidine]	did not show significant synergism	synergistically enhanced the antibacterial activity	did not
PHMB			showed synergistic activity
